These molecules were tested on IL-17A/A (assay: IL-17A/A HEK-Blue cell assay). Conditions: HEK-Blue, 20 h, IL-17A/A inhibition, HEK-Blue IL-17A reporter cell line, IL17A/A 5 ng/mL, SEAP read at A630, read-out: AA IC50.
Type: cell-based
Procedure: The HEK-Blue IL-17A reporter cell line (Fisher #NC1408637) was used for cell-based IL-17A/A inhibition assays. Cells were grown and prepared for assays according to the manufacturer's instructions. This cell line consists of HEK 293 cells that were designed to expressed IL-17RA, IL-17RC, and the Act1 adapter molecule, the combination of which, when stimulated by IL-17A/A or IL17A/F activates a NFκB promoter and drives expression of the recombinant Secreted Alkaline Phosphatase (SEAP) gene. Media from the cells is then added to a development reagent (Quanti-Blue Substrate, Fisher #NC9711613), and read at A630.
Compounds were dispensed in DMSO to an empty clear 384-well tissue culture plate in a titration ranging from 10 μM to 27 pM, with DMSO added to every well to a final concentration of 0.1%. Cells were then added to the plate (45 μL/well at a concentration of 280,000 cells/mL). IL17A/A (Genscript #Z03228) or IL17A/F (R&D Systems) was added to the plate to a final concentration of 5 ng/mL and a final well volume of 50 μL. The cells, compound, and IL-17A/A or IL17A/F were then incubated for 20 hours before media was removed for SEAP analysis. The resulting inhibition curve was then analyzed using Dotmatics' integrated 4-parameter fit screening protocol to generate IC50 values.

Row | Structure (SMILES) | IC50 [nM]
1 | CCn1nccc1C(=O)N[C@H](c1cn2nc(C[C@H]3C[C@@H](C(F)(F)F)CNC3=O)c(-c3cccnc3)cc2n1)C1CCC(F)(F)CC1 [Compound 3] | 100 to 1000
2 | CCn1nccc1C(=O)N[C@H](c1cn2nc(C[C@H]3C[C@@H](C(F)(F)F)CNC3=O)c(C3CCN(C)C3)cc2n1)C1CCC(F)(F)CC1 (some centres unmarked) [Compound 61] | 100 to 1000
3 | CCn1nccc1C(=O)N[C@H](c1cn2nc(C[C@H]3C[C@@H](C(F)(F)F)CNC3=O)c(N3CC4CC(C3)O4)cc2n1)C1CCC(F)(F)CC1 [Compound 35] | < 100
4 | CCn1nccc1C(=O)N[C@H](c1cn2nc(C[C@@H]3C[C@@H](C(F)(F)F)CNC3=O)c(-c3cncnc3)cc2n1)C1CCC(F)(F)CC1 [Compound 9] | > 1000
5 | CCn1ncnc1C(=O)N[C@H](c1cn2nc(C[C@H]3C[C@@H](C(F)(F)F)CNC3=O)c(C3CCOCC3)cc2n1)C1CCC(F)(F)CC1 [Compound 89] | 100 to 1000
6 | O=C(N[C@H](c1cn2nc(C[C@H]3C[C@@H](C(F)(F)F)CNC3=O)c(N3CC4(COC4)C3)cc2n1)C1CCC(F)(F)CC1)c1nonc1C1CC1 [Compound 42] | 100 to 1000
7 | CCn1nccc1C(=O)N[C@H](c1cn2nc(C[C@H]3C[C@H](C)CNC3=O)c(C3CCOCC3)cc2n1)C1CCC(F)(F)CC1 [Compound 102, N—((1S)-(4,4-difluorocyclohexyl)(6-(((5S)-5-methyl-2-oxopiperidin-3-yl)methyl)-7-(tetrahydro-2H-pyran-4-yl)imidazo[1,2-b]pyridazin-2-yl)methyl)-1-ethyl-1H-pyrazole-5-carboxamide] | 100 to 1000
8 | CCn1nccc1C(=O)N[C@H](c1cn2nc(C[C@H]3C[C@@H](C(F)(F)F)CNC3=O)c(N3CC4(COC4)C3)cc2n1)C1CCC(F)(F)CC1 [Compound 43] | 100 to 1000
9 | CCn1nccc1C(=O)N[C@H](c1cn2nc(C[C@H]3C[C@@H](C(F)(F)F)CNC3=O)c(N3CCOC4(CC4)C3)cc2n1)C1CCC(F)(F)CC1 [Compound 81] | < 100
10 | CCn1nccc1C(=O)N[C@H](c1cn2nc(C[C@H]3C[C@@H](C(F)(F)F)CNC3=O)c(C3CC3)cc2n1)C1CCC(F)(F)CC1 [Compound 36] | < 100
11 | CCn1nccc1C(=O)N[C@H](c1cn2nc(C[C@H]3C[C@@H](C(F)(F)F)CNC3=O)c(C3CCCC3)cc2n1)C1CCC(F)(F)CC1 [Compound 46] | < 100
12 | CCn1nccc1C(=O)N[C@H](c1cn2nc(C[C@H]3C[C@@H](C(F)(F)F)CNC3=O)c(N3CCC3)cc2n1)C1CCC(F)(F)CC1 [Compound 23] | < 100

Second part, the molecule after the results:

Row | IC50 [nM] | Structure (SMILES)
13 | < 100 | CCn1nccc1C(=O)N[C@H](c1cn2nc(C[C@H]3C[C@@H](C(F)(F)F)CNC3=O)c(CN(C)CC(F)(F)F)cc2n1)C1CCC(F)(F)CC1 [Compound 116, N—((S)-(4,4-difluorocyclohexyl)(7-((methyl(2,2,2-trifluoroethyl)amino)methyl)-6-(((3R,5R)-2-oxo-5-(trifluoromethyl)piperidin-3-yl)methyl)imidazo[1,2-b]pyridazin-2-yl)methyl)-1-ethyl-1H-pyrazole-5-carboxamide]
14 | < 100 | O=C(N[C@H](c1cn2nc(C[C@H]3C[C@@H](C(F)(F)F)CNC3=O)c(N3CCOCC3)cc2n1)[C@@H]1CCCC(F)(F)C1)c1nonc1C1CC1 [Compound 30]
15 | < 100 | CCn1nccc1C(=O)N[C@H](c1cn2nc(C[C@@H]3C[C@@H](C)CNC3=O)c(C3CCOCC3)cc2n1)C1CCC(F)(F)CC1 [Compound 101, N—((1S)-(4,4-difluorocyclohexyl)(6-(((5R)-5-methyl-2-oxopiperidin-3-yl)methyl)-7-(tetrahydro-2H-pyran-4-yl)imidazo[1,2-b]pyridazin-2-yl)methyl)-1-ethyl-1H-pyrazole-5-carboxamide]
16 | < 100 | O=C(N[C@H](c1cn2nc(C[C@H]3C[C@H](C(F)(F)F)CNC3=O)c(N3CCOCC3)cc2n1)C1CCC(F)(F)CC1)c1nonc1C1CC1 [Compound 38]
17 | < 100 | CCn1nccc1C(=O)N[C@H](c1cn2nc(C[C@H]3C[C@@H](C(F)(F)F)CNC3=O)c(N3CC4CC3CO4)cc2n1)C1CCC(F)(F)CC1 (some centres unmarked) [Compound 51]
18 | < 100 | CCn1nccc1C(=O)N[C@H](c1cn2nc(C[C@H]3C[C@@H](C(F)(F)F)CNC3=O)c(CN3CC(F)(F)C3)cc2n1)C1CCC(F)(F)CC1 [Compound 109, N—((S)-(7-((3,3-difluoroazetidin-1-yl)methyl)-6-(((3R,5R)-2-oxo-5-(trifluoromethyl)piperidin-3-yl)methyl)imidazo[1,2-b]pyridazin-2-yl)(4,4-difluorocyclohexyl)methyl)-1-ethyl-1H-pyrazole-5-carboxamide]
19 | < 100 | CCn1nccc1C(=O)N[C@H](c1cn2nc(C[C@H]3C[C@@H](C(F)(F)F)CNC3=O)c(N3CCC(OC)C3)cc2n1)C1CCC(F)(F)CC1 (some centres unmarked) [Compound 77]
20 | < 100 | CCn1nccc1C(=O)N[C@H](c1cn2nc(C[C@H]3C[C@@H](C(F)(F)F)CNC3=O)c(N3CCO[C@H](C)C3)cc2n1)C1CCC(F)(F)CC1 [Compound 33, N—((S)-(4,4-difluorocyclohexyl)(7-((R)-2-methylmorpholino)-6-(((3R,5R)-2-oxo-5-(trifluoromethyl)piperidin-3-yl)methyl)imidazo[1,2-b]pyridazin-2-yl)methyl)-1-ethyl-1H-pyrazole-5-carboxamide]
21 | < 100 | CCn1nccc1C(=O)N[C@H](c1cn2nc(C[C@H]3C[C@@H](C(F)(F)F)CNC3=O)c(C3CCS(=O)(=O)CC3)cc2n1)C1CCC(F)(F)CC1 [Compound 118, N—((S)-(4,4-difluorocyclohexyl)(7-(1,1-dioxidotetrahydro-2H-thiopyran-4-yl)-6-(((3R,5R)-2-oxo-5-(trifluoromethyl)piperidin-3-yl)methyl)imidazo[1,2-b]pyridazin-2-yl)methyl)-1-ethyl-1H-pyrazole-5-carboxamide]
22 | < 100 | CCn1nccc1C(=O)N[C@H](c1cn2nc(C[C@H]3C[C@@H](C(F)(F)F)CNC3=O)c(CN3CCOCC3)cc2n1)C1CCC(F)(F)CC1 [Compound 108, N—((S)-(4,4-difluorocyclohexyl)(7-(morpholinomethyl)-6-(((3R,5R)-2-oxo-5-(trifluoromethyl)piperidin-3-yl)methyl)imidazo[1,2-b]pyridazin-2-yl)methyl)-1-ethyl-1H-pyrazole-5-carboxamide]
23 | < 100 | CCn1nccc1C(=O)N[C@H](c1cn2nc(C[C@H]3C[C@@H](C(F)(F)F)CNC3=O)c(C3CCCCC3)cc2n1)C1CCC(F)(F)CC1 [Compound 76]
24 | < 100 | CCn1nccc1C(=O)N[C@H](c1cn2nc(C[C@H]3C[C@@H](C(F)(F)F)CNC3=O)c(N3CC4(CCOCC4)C3)cc2n1)C1CCC(F)(F)CC1 [Compound 48]
25 | < 100 | CCn1nccc1C(=O)N[C@H](c1cn2nc(C[C@H]3C[C@@H](C(F)(F)F)CNC3=O)c(CN3CCC(F)(F)C3)cc2n1)C1CCC(F)(F)CC1 [Compound 105, N—((S)-(4,4-difluorocyclohexyl)(7-((3,3-difluoropyrrolidin-1-yl)methyl)-6-(((3R,5R)-2-oxo-5-(trifluoromethyl)piperidin-3-yl)methyl)imidazo[1,2-b]pyridazin-2-yl)methyl)-1-ethyl-1H-pyrazole-5-carboxamide]
26 | < 100 | O=C(N[C@H](c1cn2nc(C[C@H]3C[C@@H](C(F)(F)F)CNC3=O)c(C3CCOCC3)cc2n1)[C@@H]1CCCC(F)(F)C1)c1nonc1C1CC1 [Compound 59]
27 | < 100 | CCn1nccc1C(=O)N[C@H](c1cn2nc(CC3C[C@@H](C(F)(F)F)CNC3=O)c(N3CCOCC3)cc2n1)C1CCC(F)(F)CC1 (some centres unmarked) [Compound 14]
28 | < 100 | CCn1nccc1C(=O)N[C@H](c1cn2nc(C[C@@H]3C[C@H](C)CNC3=O)c(C3CCOCC3)cc2n1)C1CCC(F)(F)CC1 [Compound 103, N—((1S)-(4,4-difluorocyclohexyl)(6-(((5S)-5-methyl-2-oxopiperidin-3-yl)methyl)-7-(tetrahydro-2H-pyran-4-yl)imidazo[1,2-b]pyridazin-2-yl)methyl)-1-ethyl-1H-pyrazole-5-carboxamide]

Same assay, conditions: IL-17A/A inhibition, HEK-Blue IL-17A reporter cell line, IL17A/A 5 ng/mL, 20 hours, SEAP read at A630; read-out: AA IC50

Row | IC50 [nM] | Structure (SMILES)
29 | < 100 | O=C(N[C@H](c1cn2nc(C[C@H]3C[C@@H](C(F)(F)F)CNC3=O)c(C3CCOC3)cc2n1)[C@H]1CCCC(F)(F)C1)c1nonc1C1CC1 (some centres unmarked) [Compound 73]
30 | < 100 | CCn1nccc1C(=O)N[C@H](c1cn2nc(C[C@H]3C[C@@H](C(F)(F)F)CNC3=O)c(C3CCCOC3)cc2n1)[C@@H]1CCCC(F)(F)C1 (some centres unmarked) [Compound 66]
31 | < 100 | CCn1nccc1C(=O)N[C@H](c1cn2nc(C[C@H]3C[C@@H](C(F)(F)F)CNC3=O)c(C3CCOC(C)(C)C3)cc2n1)C1CCC(F)(F)CC1 (some centres unmarked) [Compound 88]
32 | < 100 | CCn1nccc1C(=O)N[C@H](c1cn2nc(C[C@H]3C[C@@H](C(F)(F)F)CNC3=O)c(C3CCOC3)cc2n1)[C@H]1CCCC(F)(F)C1 (some centres unmarked) [Compound 71]
33 | < 100 | CCn1nccc1C(=O)N[C@H](c1cn2nc(C[C@H]3C[C@@H](C(F)(F)F)CNC3=O)c(C3CCCOC3)cc2n1)[C@H]1CCCC(F)(F)C1 (some centres unmarked) [Compound 65]
34 | < 100 | CCn1nccc1C(=O)N[C@H](c1cn2nc(C[C@H]3C[C@@H](C(F)(F)F)CNC3=O)c(C3CCCOC3)cc2n1)C1CCC(F)(F)CC1 (some centres unmarked) [Compound 12]
35 | < 100 | O=C(N[C@H](c1cn2nc(C[C@H]3C[C@@H](C(F)(F)F)CNC3=O)c(C3CCOCC3)cc2n1)C1CCC(F)(F)CC1)c1ccnn1C1CC1(F)F (some centres unmarked) [Compound 93]

Source: patent publication US20260265259A1, “SUBSTITUTED 6-IMIDAZOPYRIDAZINE IL-17A MODULATORS AND USES THEREOF” (DICE ALPHA, INC., priority 2023, published 2026)
